Measured values taken from ChEMBL document CHEMBL1201862, “PubChem BioAssay data set” (2004).
Calls of active or inactive are those of the source.

Tests used:
[1] = A Cell Based Secondary Assay To Explore Cytotoxicity of Compounds that Sensitize Mycobacterium Tuberculosis to Beta-Lactam Antibiotics.; assay type: functional
[2] = luciferase reporter signal suppression in cells – H4 neuroglioma cells, luminescence, dose response (AID 1990); assay type: functional, cell-based
[3] = Luminescence Cell-Based Dose Response HTS to Identify Inhibitors of 5'UTR Stem-Loop Driven Prion Protein mRNA Translation in H4 Neuroglioblastoma Cells. [Related pubchem assays: 1827 (Project Summary), 1813 (Primary HTS)]; assay type: functional
[4] = alpha-synuclein stem-loop luciferase translation blockers – H4 neuroglioma cells, luminescence, confirmation (AID 1988); assay type: functional, cell-based
H9c2 = experiment: cells; assay type: functional, cell-based; settings: Rattus norvegicus, H9c2, Myocardium;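 further: confirmatory concentration-response retest of ultra-high-throughput screening hits for modulation of myocardial damage; cell death induced by hydrogen peroxide oxidative stress; compound pretreatment for 60 min then peroxide exposure for 2 h; potency is for protecting the cells against peroxide damage rather than for killing them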
[5] = target: T1, RNA-binding protein pos-1 (Caenorhabditis elegans, UniProt G5EF15); experiment: disruptors of C. elegans POS-1 RNA interaction – biochemical, fluorescence polarization, dose response (AID 1964);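 further: purified POS-1 fused to maltose binding protein made in E. coli; potency of compounds blocking POS-1 binding to fluorescent RNA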
T1 sequence (G5EF15 whole entry): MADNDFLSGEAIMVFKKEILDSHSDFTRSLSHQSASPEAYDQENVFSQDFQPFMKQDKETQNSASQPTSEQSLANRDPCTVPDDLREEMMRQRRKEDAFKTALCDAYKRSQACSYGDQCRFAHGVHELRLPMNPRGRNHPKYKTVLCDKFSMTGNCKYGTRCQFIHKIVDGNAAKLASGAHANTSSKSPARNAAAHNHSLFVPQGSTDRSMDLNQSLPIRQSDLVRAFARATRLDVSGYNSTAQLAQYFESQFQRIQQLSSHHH

[6] = target: T2, Zinc finger protein mex-5 (Caenorhabditis elegans, UniProt Q9XUB2); experiment: potency of MEX-5 RNA-binding blockers – biochemical, C. elegans, fluorescence polarization, dose response (AID 1960)
T2 sequence (Q9XUB2 whole entry): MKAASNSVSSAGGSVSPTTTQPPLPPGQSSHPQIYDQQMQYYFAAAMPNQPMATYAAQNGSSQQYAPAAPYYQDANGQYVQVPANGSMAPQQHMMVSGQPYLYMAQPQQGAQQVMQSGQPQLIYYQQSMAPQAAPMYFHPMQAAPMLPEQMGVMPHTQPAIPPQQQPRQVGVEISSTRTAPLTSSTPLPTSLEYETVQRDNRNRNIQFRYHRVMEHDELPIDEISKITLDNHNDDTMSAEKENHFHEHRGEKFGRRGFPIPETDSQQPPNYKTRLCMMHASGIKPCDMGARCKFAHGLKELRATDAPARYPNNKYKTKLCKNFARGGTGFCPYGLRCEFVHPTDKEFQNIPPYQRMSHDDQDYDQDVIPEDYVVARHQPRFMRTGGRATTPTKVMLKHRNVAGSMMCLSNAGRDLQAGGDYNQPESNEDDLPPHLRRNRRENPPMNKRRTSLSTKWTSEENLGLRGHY

[7] = microbe, parasite or virus in culture; assay type: functional; settings: Mycobacterium tuberculosis
[8] = target: T3, Heat shock factor protein 1 (Mus musculus, UniProt P38532); experiment: decrease of HSF1-responsive luciferase luminescence – cell-based, NIH3T3, dose retest, confirmation (AID 2382); assay type: functional;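 further: NIH3T3 fibroblasts with HSF1-driven luciferase reporter stressed by proteasome inhibitor MG132; luminescence from HSF1-driven luciferase expression after 8 hours of MG132 stress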
T3 sequence (P38532 whole entry): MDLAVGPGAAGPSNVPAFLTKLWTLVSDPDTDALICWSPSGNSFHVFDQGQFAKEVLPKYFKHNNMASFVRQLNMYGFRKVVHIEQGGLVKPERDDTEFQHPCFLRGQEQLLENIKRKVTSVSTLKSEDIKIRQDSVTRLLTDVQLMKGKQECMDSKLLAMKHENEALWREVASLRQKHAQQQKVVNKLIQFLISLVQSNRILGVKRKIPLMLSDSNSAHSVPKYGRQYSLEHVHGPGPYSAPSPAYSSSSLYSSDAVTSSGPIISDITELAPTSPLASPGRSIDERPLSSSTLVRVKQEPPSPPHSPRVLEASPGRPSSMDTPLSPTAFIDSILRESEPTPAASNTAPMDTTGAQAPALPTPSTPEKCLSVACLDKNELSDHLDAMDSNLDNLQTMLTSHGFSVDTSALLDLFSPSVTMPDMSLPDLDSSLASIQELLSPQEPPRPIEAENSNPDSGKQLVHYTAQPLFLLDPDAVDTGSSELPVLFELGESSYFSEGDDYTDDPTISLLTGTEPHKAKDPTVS

Cytochrome P450 2C19 = Cytochrome P450 2C19 (Homo sapiens, UniProt P33261); experiment: Cytochrome panel assay with activity outcomes. Panel member name: p450-cyp2c19 Compounds with AC50 equal or less than 10 uM are considered active; assay type: functional; settings: read-out: AC50
Sequence of Cytochrome P450 2C19 (P33261 whole entry): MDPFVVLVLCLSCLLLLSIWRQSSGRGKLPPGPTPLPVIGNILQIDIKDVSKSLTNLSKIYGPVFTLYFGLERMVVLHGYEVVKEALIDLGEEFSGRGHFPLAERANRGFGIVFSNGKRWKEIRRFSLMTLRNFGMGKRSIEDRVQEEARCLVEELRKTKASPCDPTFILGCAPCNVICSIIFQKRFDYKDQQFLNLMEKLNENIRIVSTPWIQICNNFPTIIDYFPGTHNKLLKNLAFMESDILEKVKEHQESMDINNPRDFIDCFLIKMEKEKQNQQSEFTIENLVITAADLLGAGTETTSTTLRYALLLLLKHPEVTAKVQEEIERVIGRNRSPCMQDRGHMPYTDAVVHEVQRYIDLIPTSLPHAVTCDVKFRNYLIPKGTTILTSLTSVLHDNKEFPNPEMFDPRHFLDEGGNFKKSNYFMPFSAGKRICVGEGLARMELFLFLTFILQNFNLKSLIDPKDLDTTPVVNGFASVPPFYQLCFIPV

[9] = tested on: Streptococcus sp. 'group A'; experiment: Streptococcus pyogenes SK(-)GAS viability under kanamycin – luminescence, BacTiterGlo, confirmation, counter-screen for streptokinase expression inhibitor project, dose response (AID 1900); assay type: functional, organism-based
Streptokinase A = target: T4, Streptokinase A (Streptococcus pyogenes serotype M1, UniProt P10520); experiment: viability-normalized secreted streptokinase activity reduction – plasminogen activation absorbance, OD405, dose response (AID 1914); assay type: functional, Streptococcus pyogenes M1 GAS;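 further: secreted streptokinase activity via plasminogen activation per viability signal from cell pellet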
T4 sequence (P10520 whole entry): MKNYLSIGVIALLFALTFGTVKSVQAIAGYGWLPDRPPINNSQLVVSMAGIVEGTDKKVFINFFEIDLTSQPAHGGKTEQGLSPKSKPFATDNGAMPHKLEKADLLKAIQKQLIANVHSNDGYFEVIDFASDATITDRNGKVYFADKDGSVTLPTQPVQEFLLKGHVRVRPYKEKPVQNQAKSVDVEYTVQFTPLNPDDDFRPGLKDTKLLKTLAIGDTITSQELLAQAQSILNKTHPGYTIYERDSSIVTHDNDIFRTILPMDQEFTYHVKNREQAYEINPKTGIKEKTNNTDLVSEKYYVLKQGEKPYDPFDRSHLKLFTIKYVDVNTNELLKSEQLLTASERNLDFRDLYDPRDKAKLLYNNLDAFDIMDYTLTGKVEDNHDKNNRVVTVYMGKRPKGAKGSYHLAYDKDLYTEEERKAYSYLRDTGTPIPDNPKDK

[10] = target: Luciferin 4-monooxygenase (Photinus pyralis, UniProt P08659); experiment: inhibition of purified Photinus pyralis luciferase – biochemical, luminescence, dose response (AID 1891)
Sequence of Luciferin 4-monooxygenase (P08659 whole entry): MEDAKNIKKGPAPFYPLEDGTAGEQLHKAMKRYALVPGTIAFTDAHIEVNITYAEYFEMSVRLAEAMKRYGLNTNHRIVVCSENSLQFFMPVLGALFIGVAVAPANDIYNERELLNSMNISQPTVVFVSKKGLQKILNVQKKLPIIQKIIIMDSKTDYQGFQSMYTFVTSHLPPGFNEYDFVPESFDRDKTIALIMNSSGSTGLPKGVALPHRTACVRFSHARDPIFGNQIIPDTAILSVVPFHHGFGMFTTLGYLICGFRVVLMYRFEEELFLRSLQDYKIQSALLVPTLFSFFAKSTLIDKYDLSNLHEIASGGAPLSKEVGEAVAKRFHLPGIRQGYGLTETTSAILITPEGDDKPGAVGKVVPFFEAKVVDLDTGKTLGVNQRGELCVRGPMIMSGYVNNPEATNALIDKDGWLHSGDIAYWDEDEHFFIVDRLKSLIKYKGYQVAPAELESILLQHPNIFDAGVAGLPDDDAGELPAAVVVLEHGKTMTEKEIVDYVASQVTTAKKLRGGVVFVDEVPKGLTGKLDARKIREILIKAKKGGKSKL

[11] = Luminescence Cell-Based Dose Confirmation HTS to Identify Inhibitors of Platelet Dense Granule Release. [Related pubchem assays: 1663 (Primary HTS), 1678 (Summary of Project)]; assay type: functional
Streptococcus = experiment: GAS UMAA2166 growth inhibition – luminescence, BacTiterGlo, counter-screen for streptokinase expression inhibitor project, dose response (AID 1915); assay type: functional, organism-based;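 further: potency for reduction of bacterial viability or growth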
[12] = target: T5, Ubiquitin-conjugating enzyme E2 N (Homo sapiens, UniProt P61088); assay type: functional;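 further: Dose-response confirmation in a TR-FRET assay detecting UBC13-driven polyubiquitin chain formation, inhibition measured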
T5 sequence (P61088 whole entry): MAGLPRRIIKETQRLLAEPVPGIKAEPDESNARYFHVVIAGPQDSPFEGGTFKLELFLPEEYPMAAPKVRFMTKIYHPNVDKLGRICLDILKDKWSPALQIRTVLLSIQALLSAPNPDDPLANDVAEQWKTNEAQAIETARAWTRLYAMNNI

[13] = blockers of HIV-1 envelope-mediated cell-cell fusion – cherry-pick, dose response (AID 652057); assay type: functional, cell-based
[14] = blockers of HIV-1 ZM109 envelope-driven cell-cell fusion – HeLa effector, CEM target cells, luciferase, cherry-pick, dose response (AID 652058); assay type: functional, cell-based;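 further: luciferase signal from HIV-1 Env mediated cell-cell fusion of effector and target cells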
[15] = HIV-1 AD8 envelope cell-cell fusion blockers – cherry-pick, dose response (AID 652062); assay type: functional, cell-based;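 further: luciferase signal from cell-cell fusion driven by HIV-1 clade B AD8 Env; potency is for inhibitors of fusion seen as a drop in luminescence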

Compound: O=C(C1=C[C@@H](c2ccc(Br)cc2)C[C@@H](OCc2ccc(CO)cc2)O1)N1CCN(Cc2ccc3c(c2)OCO3)CC1
- CC50 [1]: > 40 µM (active)

Compound: CC(C)c1nnc(NC(=O)CC(=O)Nc2ccccc2C(=O)O)s1
- EC50 [2]: 16.3 µM (active)
- EC50 [3]: 14.6 µM (active)
- EC50 [4]: 11.3 µM (active)

Compound: c1ccc(Sc2ccccc2CN2CCCC2)cc1
- EC50 [2]: > 120 µM (not active)
- EC50 [3]: > 120 µM (not active)
- EC50 [4]: > 120 µM (not active)

Compound: Cn1nnnc1Sc1ncnc2scc(-c3ccccc3)c12
- CC50 [1]: 30 µM (active)

Compound: O=[N+]([O-])c1ccc(-c2nc(Nc3ccc(O)cc3)c3ccccc3n2)cc1
- IC50 (H9c2): > 79 µM (inactive)

Compound: CCOC(=O)c1c(C)[nH]c(C)c1C(=O)COC(=O)/C=C/c1ccc(OC(F)F)cc1
- CC50 [1]: > 40 µM (active)

Compound: Cc1ccc(N/C=C/C(=O)c2sc(-c3ccccc3)nc2C)cc1
- EC50 [5]: 46.4 µM (inconclusive)
- EC50 [6]: > 300 µM (not active)

Compound: CCOc1ccc2nc(NC(=O)C34CC5CC(CC(NC(C)=O)(C5)C3)C4)sc2c1
- CC50 [7]: > 40 µM (active)

Compound: CCOc1ccc2c(c1)/C(=C(\C(Cl)=C(Cl)Cl)[N+](=O)[O-])N2
- EC50 [5]: 68 µM (active)
- EC50 [6]: 40.3 µM (active)

Compound: Cc1ccc2[nH]c(O)c(N=Nc3ccccc3C)c2c1
- EC50 [5]: > 300 µM (not active)
- EC50 [6]: > 300 µM (not active)
- EC50 [8]: > 195 µM (not active)

Compound: COc1ccc(NC(=O)c2cc(Cl)ccc2Cl)c([N+](=O)[O-])c1
- EC50 [2]: > 120 µM (not active)
- EC50 [3]: > 120 µM (not active)
- EC50 [4]: > 120 µM (not active)

Compound: Cc1ccc(-c2cc(-c3ccc(F)cc3)nc(N)c2C#N)o1
- EC50 [2]: 17.1 µM (active)
- EC50 [3]: > 120 µM (not active)
- EC50 [4]: 49.7 µM (active)

Compound: Cc1c(C#N)c(N)nc2c3c(sc12)NC(=O)CC3c1ccc(Cl)cc1 (stereo not given)
- IC50 (H9c2): 28.2 µM (active)

Compound: Cc1c(C(=O)NC(=S)Nc2ccccc2N2CCCC2)cccc1[N+](=O)[O-]
- CC50 [1]: > 40 µM (active)

Compound: Oc1nc(-c2cccnc2)nc2ccccc12
- IC50 (H9c2): 12.8 µM (active)

Compound: CCOC(=O)c1ccc(NC(=O)CSc2nnc(-c3cccs3)n2CC)cc1
- EC50 [2]: > 120 µM (not active)
- EC50 [3]: > 120 µM (not active)
- EC50 [4]: > 120 µM (not active)

Compound: O=C(NCCC1=CCCCC1)C1CCC(CNc2nc(S)nc3ccccc23)CC1 (stereo not given)
- EC50 [2]: 9.48 µM (active)
- EC50 [3]: > 120 µM (not active)
- EC50 [4]: > 120 µM (not active)

Compound: COC(=O)c1sccc1NC(=O)C1CC2CCC1C2 (stereo not given)
- EC50 [2]: > 120 µM (not active)
- EC50 [3]: > 120 µM (not active)
- EC50 [4]: > 120 µM (not active)

Compound: COc1ccc(-c2cc(=O)oc3cc(OC(=O)C4CCCCC4)ccc23)cc1
- IC50 (H9c2): 22 µM (active)

Compound: Cc1ccc(C)c(S(=O)(=O)N2CCN(C(=O)Cn3[nH]c(=O)c4ccccc4c3=O)CC2)c1
- IC50 (H9c2): > 79 µM (inactive)

Compound: COc1ccc(NC(=S)N(Cc2cccnc2)Cc2cc3cc(OC)c(OC)cc3nc2O)cc1
- IC50 (H9c2): > 79 µM (inactive)

Compound: C=CCSc1nnc(-c2cc3c(-c4ccccc4)nn(C)c3s2)n1C
- CC50 [1]: > 40 µM (active)
- AC50 (Cytochrome P450 2C19): 17.8 µM (inconclusive)

Compound: O=C(NNC(=O)c1ccccc1O)c1ccc(S(=O)(=O)Nc2ccccc2F)cc1
- EC50 [5]: > 300 µM (not active)
- EC50 [6]: > 300 µM (inconclusive)

Compound: Cc1ccccc1-n1nc2c(c1NC(=O)C1CCCC1)CS(=O)(=O)C2
- EC50 [2]: > 120 µM (not active)
- EC50 [3]: > 120 µM (not active)
- EC50 [4]: > 120 µM (not active)

Compound: COC(=O)c1sccc1NC(=O)c1ccc(C)s1
- EC50 [5]: > 300 µM (not active)
- EC50 [6]: > 300 µM (not active)

Compound: Cc1cc(NC(=O)/C=C/c2ccccc2Cl)n(-c2nc3ccccc3[nH]2)n1
- EC50 [9]: 7.03 µM (active)
- CC50 [1]: 14.5 µM (active)
- EC50 (Streptokinase A): > 150 µM (not active)
- EC50 [10]: 3.94 µM (active)
- EC50 [11]: 13.2 µM (active)
- EC50 (Streptococcus): > 150 µM (not active)

Compound: COc1ccc(-c2cc(C(F)(F)F)nc(SCC(=O)Nc3sc4c(c3C#N)CCC4)n2)cc1
- CC50 [1]: > 40 µM (active)

Compound: CCN1C(N(C)CCc2c[nH]c3ccccc23)=N[C@@H](c2cccc(C(F)(F)F)c2)C(C(=O)OC)=C1C
- CC50 [7]: 14.3 µM (active)
- IC50 [12]: > 20 µM (inactive)

Compound: O=C(Nc1cccc2cccnc12)c1ccc2sc([C@H]3C[C@H](O)[C@@H](CO)O3)nc2c1
- IC50 (H9c2): 11 µM (active)

Compound: CC(=O)c1ccc(-c2[nH]c3ccccc3c2CCN2C(=O)c3ccccc3C2=O)cc1
- IC50 (H9c2): > 79 µM (inactive)

Compound: CC(=C/c1ccc(C(C)C)cc1)/C=N/NC(=O)c1ccncc1
- IC50 (H9c2): > 79 µM (inactive)

Compound: O=[N+]([O-])c1ccc(Nc2nc(N/N=C/c3cccc(F)c3)nc(N3CCCC3)n2)cc1
- IC50 (H9c2): > 79 µM (inactive)

Compound: CC(C)NC(=O)Nc1ccc2c(c1)C(=O)N([C@@H](C)CO)C[C@@H](C)[C@@H](CN(C)C(=O)Nc1ccc(F)cc1)OCCCC[C@@H](C)O2
- AC50 [13]: 2.79 µM (active)
- AC50 [14]: 5.56 µM (active)
- AC50 [15]: 3.2 µM (active)

Compound: C[C@H]1CN([C@@H](C)CO)C(=O)c2ccccc2-c2ccccc2CO[C@H]1CN(C)Cc1ccc(F)cc1
- AC50 [13]: < 0.285 µM (active)
- AC50 [14]: < 0.285 µM (active)
- AC50 [15]: 0.857 µM (active)

Compound: COc1ccccc1-c1ccc2c(c1)O[C@H](CN(C)S(=O)(=O)c1ccccc1)[C@H](C)CN([C@H](C)CO)S2(=O)=O
- AC50 [13]: 23.5 µM (active)
- AC50 [14]: 51.3 µM (active)

Compound: CCOc1cc(/C=N\NC(=O)c2ccc(NC(=O)C(C)(C)C)cc2)ccc1OC(=O)c1ccc(C)cc1
- CC50 [1]: > 40 µM (active)
